Laboratory results: US20160168118A1, “N-(5-QUINOLIN-6-YL)PYRIDIN-3-YL) BENZSULFAMIDE DERIVATIVES, PREPARATION METHOD AND THERAPEUTIC USE THEREOF” (SECOND MILITARY MEDICAL UNIVERSITY, PLA, priority 2012, published 2016)
Converted amounts (≈) assume the structure as drawn. Where two headings read alike, the source gives them in different places.

Tests used:
[1] = system: HCT116 (human colon cancer cells); test: MTT assay, HCT116; format: cell-based; settings: HCT-116, 72 h
PI3Kβ = PI3Kβ (Homo sapiens, UniProt P42338); test: ADP-Glo Luminescent Kinase Assay, PI3Kβ; format: biochemical; settings: read-out: IC50 on PI3K beta
Sequence of PI3Kβ (P42338 whole entry, species assumed): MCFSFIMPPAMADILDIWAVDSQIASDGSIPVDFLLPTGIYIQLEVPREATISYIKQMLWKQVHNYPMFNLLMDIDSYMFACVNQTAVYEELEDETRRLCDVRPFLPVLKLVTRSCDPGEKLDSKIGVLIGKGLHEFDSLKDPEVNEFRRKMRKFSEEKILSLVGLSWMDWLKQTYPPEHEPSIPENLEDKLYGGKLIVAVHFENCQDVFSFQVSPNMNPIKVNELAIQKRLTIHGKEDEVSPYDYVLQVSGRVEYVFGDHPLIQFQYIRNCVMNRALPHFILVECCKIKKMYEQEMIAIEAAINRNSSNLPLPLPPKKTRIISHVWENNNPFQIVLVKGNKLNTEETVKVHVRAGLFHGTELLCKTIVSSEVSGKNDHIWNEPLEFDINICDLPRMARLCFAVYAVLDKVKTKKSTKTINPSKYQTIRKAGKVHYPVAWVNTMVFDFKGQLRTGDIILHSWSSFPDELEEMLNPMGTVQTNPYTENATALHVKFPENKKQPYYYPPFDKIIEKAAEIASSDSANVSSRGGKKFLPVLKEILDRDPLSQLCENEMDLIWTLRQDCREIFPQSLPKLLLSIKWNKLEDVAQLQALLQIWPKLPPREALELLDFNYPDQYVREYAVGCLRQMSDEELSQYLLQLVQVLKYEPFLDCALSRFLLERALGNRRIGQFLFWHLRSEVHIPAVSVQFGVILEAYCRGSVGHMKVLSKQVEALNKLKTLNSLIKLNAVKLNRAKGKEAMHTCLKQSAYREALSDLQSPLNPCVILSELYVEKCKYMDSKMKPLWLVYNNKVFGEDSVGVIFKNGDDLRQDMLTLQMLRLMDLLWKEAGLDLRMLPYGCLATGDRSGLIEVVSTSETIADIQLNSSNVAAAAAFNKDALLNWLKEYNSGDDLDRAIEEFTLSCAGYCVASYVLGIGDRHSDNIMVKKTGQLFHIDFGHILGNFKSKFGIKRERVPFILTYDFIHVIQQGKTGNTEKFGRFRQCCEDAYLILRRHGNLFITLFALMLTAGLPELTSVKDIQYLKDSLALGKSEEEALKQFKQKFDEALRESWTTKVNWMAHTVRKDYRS
Sequence of PI3Kβ (P27986 whole entry partner, species assumed): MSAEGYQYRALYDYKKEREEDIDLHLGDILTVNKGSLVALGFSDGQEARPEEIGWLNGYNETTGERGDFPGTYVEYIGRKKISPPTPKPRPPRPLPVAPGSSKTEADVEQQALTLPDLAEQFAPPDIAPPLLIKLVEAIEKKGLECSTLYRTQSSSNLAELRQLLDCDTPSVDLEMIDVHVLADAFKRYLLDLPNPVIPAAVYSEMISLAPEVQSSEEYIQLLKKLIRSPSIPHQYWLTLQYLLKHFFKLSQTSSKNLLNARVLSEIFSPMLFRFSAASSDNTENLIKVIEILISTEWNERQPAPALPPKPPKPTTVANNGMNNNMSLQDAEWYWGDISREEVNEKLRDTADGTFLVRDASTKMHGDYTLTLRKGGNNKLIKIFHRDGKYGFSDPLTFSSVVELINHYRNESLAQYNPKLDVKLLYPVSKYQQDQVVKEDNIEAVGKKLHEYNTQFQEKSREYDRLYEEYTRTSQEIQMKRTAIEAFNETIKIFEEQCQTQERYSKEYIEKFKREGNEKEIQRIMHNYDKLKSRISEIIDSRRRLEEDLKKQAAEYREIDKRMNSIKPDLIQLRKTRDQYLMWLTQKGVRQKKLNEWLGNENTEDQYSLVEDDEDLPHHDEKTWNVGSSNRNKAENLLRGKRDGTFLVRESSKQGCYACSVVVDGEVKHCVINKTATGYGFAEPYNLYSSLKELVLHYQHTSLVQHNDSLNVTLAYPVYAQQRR

[2] = system: HepG2 (human hepatoma cells); test: MTT assay, HepG2; format: cell-based; settings: 72 h
Description: (§1) 1. Sample preparation: After dissolved with DMSO (Merck), PBS (−) was added to make 1000 μg/ml solution or a uniform suspension, and then diluted with PBS (−) containing the DMSO. Doxorubicin (DOX) was used as the positive control drug.
(§2) 2. Cell Line • 1) A549 (human lung cancer cells); 2) HCT116 (human colon cancer cells); 3) HepG2 (human hepatoma cells); 4) ZR-75-30 (human breast cancer cells); 5) U87MG (human brain star glioblastoma)
(§3) DMEM+5-10% FBS+double resistant
(§4) MTT assay. 100 μl cell suspension was added at a concentration of 4˜5×10^4 cells/ml to each well of a 96-well plate, and was set at 37° C., 5% CO2 in the incubator. After 24 h, the sample solution was added, 10 μl/hole, double wells were set, 37° C., acting for 72 h at 5% CO2. […] of 5 mg/ml was added to each well, the dissolving liquid was added after acted for 4 h, 100 μl/hole, kept in the incubator, and read 570 nm OD with MK-2 automatic microplate reader after dissolution.

PI3Kγ = PI3Kγ (Homo sapiens, UniProt P48736); test: ADP-Glo Luminescent Kinase Assay, PI3Kγ; format: biochemical; settings: read-out: IC50 on PI3K gamma
Sequence of PI3Kγ (P48736 whole entry, species assumed): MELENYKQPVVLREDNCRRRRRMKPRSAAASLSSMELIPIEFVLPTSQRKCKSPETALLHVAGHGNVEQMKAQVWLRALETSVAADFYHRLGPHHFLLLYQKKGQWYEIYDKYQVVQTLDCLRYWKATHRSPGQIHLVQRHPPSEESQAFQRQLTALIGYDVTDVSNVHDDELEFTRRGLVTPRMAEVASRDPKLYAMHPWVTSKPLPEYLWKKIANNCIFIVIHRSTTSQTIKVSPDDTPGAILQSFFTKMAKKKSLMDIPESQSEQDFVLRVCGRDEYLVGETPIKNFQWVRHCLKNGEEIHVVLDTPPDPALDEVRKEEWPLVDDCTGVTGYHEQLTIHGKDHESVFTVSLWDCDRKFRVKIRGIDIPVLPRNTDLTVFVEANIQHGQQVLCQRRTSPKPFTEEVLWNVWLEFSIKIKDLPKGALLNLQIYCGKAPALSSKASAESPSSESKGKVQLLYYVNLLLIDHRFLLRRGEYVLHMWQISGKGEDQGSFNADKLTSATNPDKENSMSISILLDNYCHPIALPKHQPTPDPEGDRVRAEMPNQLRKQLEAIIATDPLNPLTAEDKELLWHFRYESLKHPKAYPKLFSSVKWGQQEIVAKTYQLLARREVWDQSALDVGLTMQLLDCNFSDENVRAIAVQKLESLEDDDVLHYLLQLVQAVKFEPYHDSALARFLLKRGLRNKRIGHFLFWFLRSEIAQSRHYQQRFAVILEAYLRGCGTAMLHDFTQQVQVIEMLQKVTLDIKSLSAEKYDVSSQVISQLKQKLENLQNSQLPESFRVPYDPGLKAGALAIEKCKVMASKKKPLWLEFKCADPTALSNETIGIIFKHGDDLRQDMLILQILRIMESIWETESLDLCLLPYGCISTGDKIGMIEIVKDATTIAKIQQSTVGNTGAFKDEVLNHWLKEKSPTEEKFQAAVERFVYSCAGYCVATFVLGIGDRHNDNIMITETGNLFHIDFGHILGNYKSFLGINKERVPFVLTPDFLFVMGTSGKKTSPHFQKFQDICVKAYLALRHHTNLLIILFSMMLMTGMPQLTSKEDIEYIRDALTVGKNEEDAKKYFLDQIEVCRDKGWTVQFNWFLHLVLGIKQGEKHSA

[3] = system: U87MG (human brain star glioblastoma); test: MTT assay, U87MG; format: cell-based; settings: U-87 MG, 72 h
Description: as §1, §2, §3, §4

PI3K delta = PI3K delta (Homo sapiens, UniProt O00329); test: Kinase-Glo Luminescent Kinase Assay, PI3K delta; format: biochemical
Sequence of PI3K delta (O00329 whole entry): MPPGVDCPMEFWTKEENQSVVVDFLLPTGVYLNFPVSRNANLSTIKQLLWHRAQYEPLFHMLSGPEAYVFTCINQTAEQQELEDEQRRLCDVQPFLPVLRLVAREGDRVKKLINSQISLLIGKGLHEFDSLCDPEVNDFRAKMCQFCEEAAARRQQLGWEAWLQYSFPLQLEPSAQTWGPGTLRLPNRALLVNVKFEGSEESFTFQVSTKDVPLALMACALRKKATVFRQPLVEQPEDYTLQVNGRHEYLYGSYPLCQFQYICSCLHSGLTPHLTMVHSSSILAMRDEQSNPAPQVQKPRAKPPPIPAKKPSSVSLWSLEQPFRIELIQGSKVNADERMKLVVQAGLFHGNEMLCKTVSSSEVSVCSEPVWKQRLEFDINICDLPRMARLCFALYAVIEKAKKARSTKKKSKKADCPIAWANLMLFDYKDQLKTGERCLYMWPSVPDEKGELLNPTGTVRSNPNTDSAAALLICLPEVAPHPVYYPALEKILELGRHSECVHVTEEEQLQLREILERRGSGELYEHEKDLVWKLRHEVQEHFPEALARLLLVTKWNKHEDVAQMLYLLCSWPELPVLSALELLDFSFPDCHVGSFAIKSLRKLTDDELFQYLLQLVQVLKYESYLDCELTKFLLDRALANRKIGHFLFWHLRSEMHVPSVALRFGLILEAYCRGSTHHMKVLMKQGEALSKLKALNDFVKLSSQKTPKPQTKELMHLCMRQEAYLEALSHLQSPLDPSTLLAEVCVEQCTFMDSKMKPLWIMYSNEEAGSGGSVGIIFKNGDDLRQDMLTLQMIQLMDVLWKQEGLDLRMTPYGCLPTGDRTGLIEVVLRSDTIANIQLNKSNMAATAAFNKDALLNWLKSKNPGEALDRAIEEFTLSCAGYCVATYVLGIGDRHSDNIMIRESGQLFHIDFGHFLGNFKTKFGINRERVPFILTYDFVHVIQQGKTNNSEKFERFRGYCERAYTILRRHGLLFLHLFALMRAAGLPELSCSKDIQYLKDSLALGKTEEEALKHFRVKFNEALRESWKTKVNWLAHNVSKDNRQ
Sequence of PI3K delta (P27986 whole entry partner): as the sequence (P27986 whole entry partner, species assumed) above

[4] = system: A549 (human lung cancer cells); test: MTT assay, A549; format: cell-based; settings: 72 h
Description: as §1, §2, §3, §4

mTOR = mTOR (Homo sapiens, UniProt P42345); test: Lance Ultra Assay, mTOR; format: biochemical
[5] = system: ZR-75-30 (human breast cancer cells); test: MTT assay, ZR-75-30; format: cell-based; settings: 72 h
Description: as §1, §2, §3, §4

PI3Kα = PI3Kα (Homo sapiens, UniProt P42336); test: Kinase-Glo Luminescent Kinase Assay, PI3Kα; format: biochemical
Sequence of PI3Kα (P42336 whole entry, species assumed): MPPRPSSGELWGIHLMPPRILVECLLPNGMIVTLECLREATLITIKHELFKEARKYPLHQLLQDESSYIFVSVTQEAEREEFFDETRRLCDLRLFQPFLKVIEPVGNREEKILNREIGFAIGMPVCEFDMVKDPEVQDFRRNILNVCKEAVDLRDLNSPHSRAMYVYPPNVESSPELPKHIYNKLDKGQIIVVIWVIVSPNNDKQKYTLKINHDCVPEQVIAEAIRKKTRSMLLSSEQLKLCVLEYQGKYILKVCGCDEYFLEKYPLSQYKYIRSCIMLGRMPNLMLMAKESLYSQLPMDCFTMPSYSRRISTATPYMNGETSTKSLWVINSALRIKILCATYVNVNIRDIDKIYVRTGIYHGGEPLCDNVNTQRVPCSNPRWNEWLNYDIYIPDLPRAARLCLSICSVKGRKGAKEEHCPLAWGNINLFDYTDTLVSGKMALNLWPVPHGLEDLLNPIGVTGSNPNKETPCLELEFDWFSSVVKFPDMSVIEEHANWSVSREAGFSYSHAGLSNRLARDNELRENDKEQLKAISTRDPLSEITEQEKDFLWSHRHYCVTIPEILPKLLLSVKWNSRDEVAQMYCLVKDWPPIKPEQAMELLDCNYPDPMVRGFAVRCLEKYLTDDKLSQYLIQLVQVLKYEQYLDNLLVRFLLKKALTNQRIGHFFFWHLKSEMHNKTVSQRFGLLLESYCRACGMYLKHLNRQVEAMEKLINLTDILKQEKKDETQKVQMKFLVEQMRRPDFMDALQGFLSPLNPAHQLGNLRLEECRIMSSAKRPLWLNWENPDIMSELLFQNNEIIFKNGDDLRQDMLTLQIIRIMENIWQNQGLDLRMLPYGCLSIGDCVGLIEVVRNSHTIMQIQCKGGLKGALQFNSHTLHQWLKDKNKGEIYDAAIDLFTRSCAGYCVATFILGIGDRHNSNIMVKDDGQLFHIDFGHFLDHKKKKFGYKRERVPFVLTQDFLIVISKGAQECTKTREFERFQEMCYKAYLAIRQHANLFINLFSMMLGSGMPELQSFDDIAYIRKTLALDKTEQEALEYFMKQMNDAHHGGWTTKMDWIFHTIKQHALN
Sequence of PI3Kα (P27986 whole entry partner, species assumed): as the sequence (P27986 whole entry partner, species assumed) above

five human tumor cells = test: MTT assay, five human tumor cells (summary in words); format: cell-based; settings: A549, HCT116, HepG2, ZR-75-30, U87MG
Description: as §1, §2, §3, §4

[6] = system: 60 kinds of human cancer cell lines; test: Cytotoxicity test on 60 kinds of human cancer cell lines from the US National Cancer Institute; format: cell-based
From the text: (§5) Cytotoxicity Test of Compound 9, 10 and 17 on 60 Kinds of Human Cancer Cell Lines from the US National Cancer Institute

MCF7 = test: NCI cytotoxicity test, MCF7; format: cell-based; settings: Homo sapiens
From the text: as §5

OVCAR3 = test: NCI cytotoxicity test, OVCAR3; format: cell-based; settings: Homo sapiens, OVCAR-3
From the text: as §5

COLO205 = test: NCI cytotoxicity test, COLO205; format: cell-based; settings: Homo sapiens, COLO 205
From the text: as §5

SF539 = test: NCI cytotoxicity test, SF539; format: cell-based; settings: Homo sapiens, SF-539
From the text: as §5

PC3 = test: NCI cytotoxicity test, PC3; format: cell-based; settings: Homo sapiens, PC-3
From the text: as §5

A549 = test: NCI cytotoxicity test, A549; format: cell-based; settings: Homo sapiens
From the text: as §5

SN12C = test: NCI cytotoxicity test, SN12C; format: cell-based; settings: Homo sapiens
From the text: as §5

[7] = Solubility test in buffer solution at pH=1; format: physicochemical; settings: pH=1 buffer solution, simulated gastric fluid, thermodynamic from solid; buffer solution pH=1
Description: Compound 9 1.02 mg was precisely weighed and placed in 1.5 mL of EP tube, and 10 uL pH=1 buffer solution was added, vortexed for 30S and ultrasonic for 20 min. There was a lot of visible turbidity after that.
20 uL buffer was added and ultrasounded and the solution was found still turbid. Turbidity reduced after the solution was diluted to 1 mL and vortexed, while there still exist residual after diluted to 2 mL.

[8] = system: human lung carcinoma A549 xenografts; test: In vivo efficacy on human lung carcinoma A549 xenografts in nude mice; set-up: species or system BALB/C nude mice; settings: ig, GSK2126458 3 mg/kg, compound 9 10 mg/kg
From the text: Strain: BALB/C nude mice (SPF grade), Source: Shanghai Slac laboratory animal limited liability company, the production license number: SCXK (Shanghai) 2007-0005, the using license number: SYXK (Shanghai) 2009-0068, gender: male, weight: 18-20 g, the number of animals per group: 6.
A549 solid tumors which were well-grown were taken, cut to uniform bits of about 3 mm size under aseptic condition, every bit was inoculated to each mouse subcutaneously in the right armpit with trocar, and randomly divided into three groups, each treatment was:
1) Control (saline), gavage, the dose 25 ml/kg, 14 days;
3) Compound 9, gavage, the dose 10 mg/kg, 14 days;
Regrouped according to tumor size on the 13th day after inoculation, the animals of which tumor size is too large and too small were eliminated, the average tumor volume of each group are basically the same. Administration was carried out according to the above regimen; the dosing volume was 0.5 ml/20 g body weight. The axis (a), shorter diameter (b) of tumor was measured 2 times a week with an electronic digital caliper, calculate formula of tumor volume (tumor volume, TV) is as follows: TV=1/2×a×b2, calculate formula of relative tumor volume (relative tumor volume, RTV), is as follows: RTV=Vt/Vo, wherein Vo is the tumor volume measured at the time when dividing cages (i.e. dl), Vt is the tumor volume measured each time. […] T test was conducted. Animals were sacrificed 30 days after inoculation, dissected and the tumor mass were taken, tumor weight was measured.

[9] = on the 60 kinds of tumor cells, read-out: Average GI50

Row | Structure (SMILES) | IC50 [1] [µg/mL] | IC50 (PI3Kβ) [nM] | IC50 [2] [µg/mL] | IC50 (PI3Kγ) [nM] | IC50 [3] [µg/mL] | IC50 (PI3K delta) [nM] | IC50 [4] [µg/mL] | IC50 (mTOR) [nM] | melting point [°C] | IC50 [5] [µg/mL] | IC50 (PI3Kα) [nM] | other results
1 | COc1ncc(-c2ccc3nccc(-n4cncn4)c3c2)cc1NS(=O)(=O)c1ccc(F)cc1F [Compound 1, N-(5-(4-(1H-1,2,4-triazole-1-yl)quinolin-6-yl)-2-methoxypyridine-3-yl)-2,4-difluorobenzenesulfonamide] | 0.011 (≈ 0.0222 µM) | 3.6 | 1.37 (≈ 2.77 µM) | 0.47 | 0.475 (≈ 0.961 µM) | 2.6 | 0.00819 (≈ 0.0166 µM) | 1.1 | 123 to 124 | 0.454 (≈ 0.918 µM) | 0.55 | 
2 | CCN(CC)Cc1ccc(-c2ccnc3ccc(-c4cnc(OC)c(NS(=O)(=O)c5ccc(F)cc5F)c4)cc23)cc1 [Compound 5, N-(5-(4-(4-((diethylamine)methyl)phenyl)quinolin-6-yl)-2-methoxypyridine-3-yl)-2,4-difluorobenzenesulfonamide] | 0.00293 (≈ 0.00498 µM) |  | 0.613 (≈ 1.04 µM) |  | 2.88 (≈ 4.89 µM) |  | 0.013 (≈ 0.0221 µM) |  | 106 to 108 | 0.783 (≈ 1.33 µM) | 1.1 | 
3 | COc1ncc(-c2ccc3nccc(-c4ccc(C)cc4)c3c2)cc1NS(=O)(=O)c1ccc(F)cc1F [Compound 6, N-(2-methoxy-5-(4-(p-methylphenyl)quinolin-6-yl)pyridin-3-yl)-2,4-difluorobenzenesulfonamide] | 1.31 (≈ 2.54 µM) |  | 5.63 (≈ 10.9 µM) |  | 34.7 (≈ 67 µM) |  | 0.642 (≈ 1.24 µM) |  | 175 to 176 | 6.69 (≈ 12.9 µM) | 4.5 | 
4 | COC(=O)c1ccc(-c2ccnc3ccc(-c4cnc(OC)c(NS(=O)(=O)c5ccc(F)cc5F)c4)cc23)cc1 [Compound 7, 4-(6-(5-(2,4-difluorobenzenesulfonamideyl)-6-methoxypyridine-3-yl)quinolin-4-yl)methyl benzoate] | 0.277 (≈ 0.493 µM) |  | 1.16 (≈ 2.07 µM) |  | 3.9 (≈ 6.95 µM) |  | 0.014 (≈ 0.0249 µM) |  | 69 to 72 | 1.74 (≈ 3.1 µM) | 1.5 | 
5 | CCOC(=O)c1ccc(-c2ccnc3ccc(-c4cnc(OC)c(NS(=O)(=O)c5ccc(F)cc5F)c4)cc23)cc1 [Compound 8, 4-(6-(5-(2,4-difluorobenzenesulfonamideyl)-6-methoxypyridine-3-yl)quinolin-4-yl) ethyl benzoate] | 0.235 (≈ 0.408 µM) |  | 2.65 (≈ 4.6 µM) |  | 11.7 (≈ 20.3 µM) |  | 0.043 (≈ 0.0747 µM) |  | 90 to 92 | 2.45 (≈ 4.26 µM) | 2.6 | 
6 | COc1ncc(-c2ccc3nccc(-c4ccc(Cn5cncn5)cc4)c3c2)cc1NS(=O)(=O)c1ccc(F)cc1F [Compound 10, N-(5-(4-(4-((1H-1,2,4-triazole-1-yl)methyl)phenyl)quinolin-6-yl)-2-methoxypyridine-3-yl)-2,4-difluorobenzenesulfonamide] | 0.00507 (≈ 0.00867 µM) | 1.7 |  | 0.74 | 0.129 (≈ 0.221 µM) | 2.8 | 0.00927 (≈ 0.0159 µM) | 1.1 | 121 to 123 |  | 0.65 | in vitro proliferation inhibition (in words) (five human tumor cells): high in vitro proliferation inhibition; GI50 ([6]; on the 36 tumor cell lines, read-out: average half growth inhibitory concentration (GI50)): < 10 nM; GI50 [6, 9]: 15.1 nM; GI50 (MCF7): < 10 nM; GI50 (OVCAR3): < 10 nM; GI50 (COLO205): < 10 nM; GI50 (SF539): < 10 nM; GI50 (PC3): < 10 nM; GI50 (A549): < 10 nM; GI50 (SN12C): < 10 nM
7 | COc1ncc(-c2ccc3nccc(-c4ccc(CN(C)CCO)cc4)c3c2)cc1NS(=O)(=O)c1ccc(F)cc1F [Compound 17, N-(5-(4-(4-(((2-hydroxyethyl)(methyl)amino)methyl)phenyl)quinolin-6-yl)-2-methoxypyridine-3-yl)-2,4-difluorobenzenesulfonamide] | 0.0028 (≈ 0.00474 µM) | 1.1 |  | 1.1 | 0.092 (≈ 0.156 µM) | 3.4 | 0.012 (≈ 0.0203 µM) | 2.2 | 84 to 85 |  | 0.59 | in vitro proliferation inhibition (in words) (five human tumor cells): high in vitro proliferation inhibition; GI50 ([6]; on the 38 tumor cell lines, read-out: average half growth inhibitory concentration (GI50)): < 10 nM; GI50 [6, 9]: 15.8 nM; GI50 (MCF7): < 10 nM; GI50 (OVCAR3): < 10 nM; GI50 (COLO205): < 10 nM; GI50 (SF539): < 10 nM; GI50 (PC3): < 10 nM; GI50 (A549): < 10 nM; GI50 (SN12C): < 10 nM
8 | COc1ncc(-c2ccc3nccc(-c4ccnnc4)c3c2)cc1NS(=O)(=O)c1ccc(F)cc1F [GSK2126458, reference compound] |  |  |  | 0.61 | 0.537 (≈ 1.06 µM) |  | 0.014 (≈ 0.0277 µM) |  |  |  |  | solubility at 20 min [7]: 200 µg/mL (≈ 396 µM); Tumor Inhibition rate % [8]: 65.93%; Animal wight (g) (tumor removed) ([8]; at end): 21.41 ± 1.49 g; RTV (d18) x ± SD ([8]; d18): 6.91 ± 1.97
